Assay results published in US20110172296A1, “MODULATION OF TRANSFORMING GROWTH FACTOR-BETA 1 EXPRESSION” (priority 2010, published 2011).
Values joined by “and” are separate entries in the source; they are usually repeats but may differ in a detail not shown here. Equal entries are not always repeated. In the oligonucleotide strings, read from the 5' end, every base follows the letter of its sugar. An asterisk marks phosphorothioate; unmarked linkages are phosphodiester. Other units and linkages are bracketed, terminal groups are in braces. A string of capitals states the bases alone. e = 2'-O-(2-methoxyethyl) (MOE); [5mC] = 5-methylcytosine; d = 2'-deoxy (DNA)

System: human TGF-beta1 mRNA
Assay: Antisense inhibition of human TGF-beta1 mRNA in HuVEC cells, single 10 nM dose, Lipofectamine 2000 (Example 2)
Type: cell-based
Conditions: for % inhibition: 10 nM oligonucleotide, HuVEC, relative to untreated control cells; for inhibition of a TGF-beta1 mRNA: threshold lists of Oligo IDs, 10 nM
Description: Antisense oligonucleotides targeted to a TGF-beta1 nucleic acid were tested for their effects on TGF-beta1 mRNA in vitro. Cultured HuVEC cells at a density of 5,000 cells per well were transfected using Lipofectamine™ 2000 reagent with 10 nM antisense oligonucleotide for 4 hours. After a recovery period of approximately 24 hours, RNA was isolated from the cells and TGF-beta1 mRNA levels were measured by quantitative real-time PCR. TGF-beta1 mRNA levels were adjusted according to total RNA content, as measured by RIBOGREEN®. Results are presented as percent inhibition of TGF-beta1, relative to untreated control cells.
The chimeric antisense oligonucleotides in Tables 1 and 2 were designed as 2-13-5 MOE gapmers. Antisense molecules with this motif targeting TGF-beta1 are unique, and represent a novel chemical structure for an ASO directed against this target. The gapmers are 20 nucleotides in length, wherein the central gap segments are comprised of thirteen 2′-deoxynucleotides and are flanked on the 5′ side by wings comprising two nucleotides each and on the 3′ side by wings comprising five nucleotides each. Each nucleotide in the 5′ wing segment and each nucleotide in the 3′ wing segment has a 2′-MOE modification. The internucleoside linkages throughout each gapmer are phosphorothioate (P═S) linkages. All cytosine residues throughout each gapmer are 5-methylcytosines. “Target start site” indicates the 5′-most nucleotide to which the gapmer is targeted. “Target stop site” indicates the 3′-most nucleotide to which the gapmer is targeted. Each gapmer listed in Table 1 is targeted to SEQ ID NO: 1 (GENBANK Accession No. NM_000660.3). Each gapmer listed in Table 2 is targeted to SEQ ID NO: 2 (GENBANK Accession No. NT 011109.15 truncated from 14103000 to […]).

[1] = gapmers targeted to SEQ ID NO: 1
[2] = gapmers targeted to SEQ ID NO: 2

Substance	% inhibition [1]	inhibition of a TGF-beta1 mRNA	% inhibition [2]
413990 (antisense eG*e[5mC]*dG*dG*d[5mC]*dA*dA*dA*dG*dG*dG*dA*dG*dG*d[5mC]*eG*eG*eT*e[5mC]*eT) [compound 413990]	59%		
413994 (antisense e[5mC]*eG*dT*d[5mC]*d[5mC]*d[5mC]*d[5mC]*dG*dG*d[5mC]*dG*dG*d[5mC]*dA*dA*eA*eG*eG*eG*eA) [compound 413994]	67%	60% and 65%	
414097 (antisense eG*eA*dA*dT*d[5mC]*d[5mC]*dA*dA*d[5mC]*dA*dT*dT*dT*d[5mC]*dA*eG*e[5mC]*eT*eT*eT) [compound 414097]		60% and 65% and 70%	74%
414005 (antisense e[5mC]*e[5mC]*dA*dG*dA*dA*dG*dG*dT*dG*dG*dG*dT*dG*dG*eT*e[5mC]*eT*eT*eG) [compound 414005]	77%	60% and 65% and 70% and 75%	
414068 (antisense eT*e[5mC]*dT*dG*d[5mC]*dA*dA*d[5mC]*dA*dT*d[5mC]*d[5mC]*dA*dA*dA*eA*eT*eA*eG*eT) [compound 414068]			53%
414024 (antisense eG*e[5mC]*dT*d[5mC]*dG*dG*dG*d[5mC]*dT*d[5mC]*d[5mC]*dG*dG*dT*dT*e[5mC]*eT*eG*e[5mC]*eA) [compound 414024]	83%	60% and 65% and 70% and 75% and 80%	
414032 (antisense eG*eG*dG*dT*dT*dA*dT*dG*d[5mC]*dT*dG*dG*dT*dT*dG*eT*eA*e[5mC]*eA*eG) [compound 414032]	80%	60% and 65% and 70% and 75% and 80%	
413976 (antisense e[5mC]*eA*dG*d[5mC]*dG*dG*d[5mC]*dA*dA*d[5mC]*dG*dG*dA*dA*dA*eA*eG*eT*e[5mC]*eT) [compound 413976]	72%	60% and 65% and 70%	
414018 (antisense eA*eA*dA*dT*dA*dA*d[5mC]*d[5mC]*dT*dA*dG*dA*dT*dG*dG*eG*e[5mC]*eG*e[5mC]*eG) [compound 414018]	82%	60% and 65% and 70% and 75% and 80%	
414099 (antisense eG*eT*dA*dG*dG*d[5mC]*dT*dA*dT*dT*dA*dA*dT*dA*dG*eT*eT*eA*eA*eG) [compound 414099]			37%
414119 (antisense eT*eG*dT*dG*d[5mC]*dA*dA*d[5mC]*dA*dA*dA*dT*dG*dT*dT*eT*eA*eT*eT*eG) [compound 414119]			43%
414027 (antisense eG*eG*d[5mC]*d[5mC]*dT*d[5mC]*dA*dG*dG*d[5mC]*dT*d[5mC]*dG*dG*dG*e[5mC]*eT*e[5mC]*e[5mC]*eG) [compound 414027]	84%	60% and 65% and 70% and 75% and 80%	
414096 (antisense e[5mC]*e[5mC]*dA*dA*d[5mC]*d[5mC]*dT*dT*dT*dG*dA*dG*dG*dA*dT*e[5mC]*eT*eT*eG*eG) [compound 414096]		60% and 65% and 70%	74%
414055 (antisense eA*eT*dT*dA*dG*dT*dT*dT*dT*d[5mC]*d[5mC]*dA*d[5mC]*d[5mC]*d[5mC]*eT*eT*eA*eA*e[5mC]) [compound 414055]			53%
414044 (antisense eA*eT*d[5mC]*dT*dA*dA*d[5mC]*dT*dA*d[5mC]*dA*dG*dT*dA*dG*eT*eG*eT*eT*e[5mC]) [compound 414044]	31%		
414049 (antisense e[5mC]*eT*dG*dA*dG*dT*dG*dG*dG*dA*dG*d[5mC]*d[5mC]*d[5mC]*d[5mC]*eG*e[5mC]*e[5mC]*e[5mC]*eG) [compound 414049]			53%
414028 (antisense e[5mC]*e[5mC]*dA*dT*dT*dA*dG*d[5mC]*dA*d[5mC]*dG*d[5mC]*dG*dG*dG*eT*eG*eA*e[5mC]*e[5mC]) [compound 414028]	75%	60% and 65% and 70% and 75%	

Substance	% inhibition [1]	inhibition of a TGF-beta1 mRNA	% inhibition [2]
414086 (antisense eT*eT*dG*dA*dA*dT*dT*d[5mC]*d[5mC]*dA*dA*d[5mC]*dA*dA*dT*e[5mC]*eA*e[5mC]*eA*eG) [compound 414086]			54%
414015 (antisense e[5mC]*e[5mC]*dT*dA*dG*dA*dT*dG*dG*dG*d[5mC]*dG*d[5mC]*dG*dA*eT*e[5mC]*eT*eG*eG) [compound 414015]	83%	60% and 65% and 70% and 75% and 80%	
414059 (antisense e[5mC]*eA*dA*dG*dA*d[5mC]*dA*dG*dA*dG*dT*dG*dA*d[5mC]*dT*e[5mC]*eT*eA*eG*eA) [compound 414059]		60% and 65%	66%
414060 (antisense eA*e[5mC]*dA*dG*d[5mC]*dA*dA*dT*dA*dA*d[5mC]*dA*dT*dT*dA*eA*eG*e[5mC]*eT*e[5mC]) [compound 414060]			31%
413981 (antisense e[5mC]*eT*d[5mC]*d[5mC]*dG*dG*d[5mC]*dT*d[5mC]*d[5mC]*d[5mC]*dA*dG*d[5mC]*dG*eG*e[5mC]*eA*eA*e[5mC]) [compound 413981]	71%	60% and 65% and 70%	
414066 (antisense eG*eT*dG*dG*dA*d[5mC]*d[5mC]*dT*dT*dG*dT*dA*dA*d[5mC]*d[5mC]*eA*eG*e[5mC]*e[5mC]*eG) [compound 414066]		60% and 65% and 70% and 75% and 80%	80%
413973 (antisense e[5mC]*eA*dA*d[5mC]*dG*dG*dA*dA*dA*dA*dG*dT*d[5mC]*dT*d[5mC]*eA*eA*eA*eA*eG) [compound 413973]	25%		
414062 (antisense e[5mC]*e[5mC]*d[5mC]*d[5mC]*dT*dA*dA*dA*dA*dT*dG*d[5mC]*dA*dG*dA*eG*eT*eA*eA*eG) [compound 414062]		60% and 65% and 70%	72%
414016 (antisense eA*eA*d[5mC]*d[5mC]*dT*dA*dG*dA*dT*dG*dG*dG*d[5mC]*dG*d[5mC]*eG*eA*eT*e[5mC]*eT) [compound 414016]	78%	60% and 65% and 70% and 75%	
414108 (antisense e[5mC]*eA*d[5mC]*dA*dT*dG*d[5mC]*dA*dA*dT*d[5mC]*d[5mC]*dA*d[5mC]*d[5mC]*eG*eT*eG*eT*eT) [compound 414108]		60%	61%
414030 (antisense e[5mC]*eT*dA*dA*dG*dG*d[5mC]*dG*dA*dA*dA*dG*d[5mC]*d[5mC]*d[5mC]*eT*e[5mC]*eA*eA*eT) [compound 414030]	60%	60%	
414008 (antisense e[5mC]*eT*dG*dG*dT*dA*d[5mC]*d[5mC]*dA*dG*dA*dA*dG*dG*dT*eG*eG*eG*eT*eG) [compound 414008]	89%	60% and 65% and 70% and 75% and 80% and 85%	
414079 (antisense eG*eT*d[5mC]*dT*dT*dG*dG*dT*dT*dA*dT*d[5mC]*dA*d[5mC]*dT*eA*eT*eG*eT*e[5mC]) [compound 414079]		60%	62%
414091 (antisense eG*eG*dT*dA*dT*d[5mC]*d[5mC]*dA*d[5mC]*dA*dA*dT*dT*dG*dG*e[5mC]*e[5mC]*eA*eG*eT) [compound 414091]		60%	64%
413969 (antisense e[5mC]*eG*dA*d[5mC]*dT*d[5mC]*d[5mC]*dT*dT*d[5mC]*d[5mC]*dT*d[5mC]*d[5mC]*dG*e[5mC]*eT*e[5mC]*e[5mC]*eG) [compound 413969]	53%		
414070 (antisense eG*eA*d[5mC]*dT*dA*dA*dT*dG*dT*dT*d[5mC]*dT*dA*dT*dA*eA*eA*e[5mC]*e[5mC]*e[5mC]) [compound 414070]			54%
413986 (antisense eG*eT*d[5mC]*d[5mC]*d[5mC]*d[5mC]*dG*d[5mC]*dG*d[5mC]*d[5mC]*dT*d[5mC]*d[5mC]*dG*eG*e[5mC]*eT*e[5mC]*e[5mC]) [compound 413986]	69%	60% and 65%	
